From patent publication US20100168103A1, “DIARYL PIPERIDINE COMPOUNDS AS CALCIUM CHANNEL BLOCKERS” (NEUROMED PHARMACEUTICALS LTD., priority 2006, published 2010) come the findings set out here.

Structures are written as SMILES. pIC50: −log10 of the molar value. Like-named read-outs stand apart in the source and are kept apart here.

The target of this experiment is T1, rat brain N-type calcium channel subunits (α1B+α2δ+β1b cDNA subunits) (Rattus norvegicus, UniProt Q02294).
T1 construct: expressed in transfected cells; host or cells: HEK 293
T1 sequence (Q02294 whole entry): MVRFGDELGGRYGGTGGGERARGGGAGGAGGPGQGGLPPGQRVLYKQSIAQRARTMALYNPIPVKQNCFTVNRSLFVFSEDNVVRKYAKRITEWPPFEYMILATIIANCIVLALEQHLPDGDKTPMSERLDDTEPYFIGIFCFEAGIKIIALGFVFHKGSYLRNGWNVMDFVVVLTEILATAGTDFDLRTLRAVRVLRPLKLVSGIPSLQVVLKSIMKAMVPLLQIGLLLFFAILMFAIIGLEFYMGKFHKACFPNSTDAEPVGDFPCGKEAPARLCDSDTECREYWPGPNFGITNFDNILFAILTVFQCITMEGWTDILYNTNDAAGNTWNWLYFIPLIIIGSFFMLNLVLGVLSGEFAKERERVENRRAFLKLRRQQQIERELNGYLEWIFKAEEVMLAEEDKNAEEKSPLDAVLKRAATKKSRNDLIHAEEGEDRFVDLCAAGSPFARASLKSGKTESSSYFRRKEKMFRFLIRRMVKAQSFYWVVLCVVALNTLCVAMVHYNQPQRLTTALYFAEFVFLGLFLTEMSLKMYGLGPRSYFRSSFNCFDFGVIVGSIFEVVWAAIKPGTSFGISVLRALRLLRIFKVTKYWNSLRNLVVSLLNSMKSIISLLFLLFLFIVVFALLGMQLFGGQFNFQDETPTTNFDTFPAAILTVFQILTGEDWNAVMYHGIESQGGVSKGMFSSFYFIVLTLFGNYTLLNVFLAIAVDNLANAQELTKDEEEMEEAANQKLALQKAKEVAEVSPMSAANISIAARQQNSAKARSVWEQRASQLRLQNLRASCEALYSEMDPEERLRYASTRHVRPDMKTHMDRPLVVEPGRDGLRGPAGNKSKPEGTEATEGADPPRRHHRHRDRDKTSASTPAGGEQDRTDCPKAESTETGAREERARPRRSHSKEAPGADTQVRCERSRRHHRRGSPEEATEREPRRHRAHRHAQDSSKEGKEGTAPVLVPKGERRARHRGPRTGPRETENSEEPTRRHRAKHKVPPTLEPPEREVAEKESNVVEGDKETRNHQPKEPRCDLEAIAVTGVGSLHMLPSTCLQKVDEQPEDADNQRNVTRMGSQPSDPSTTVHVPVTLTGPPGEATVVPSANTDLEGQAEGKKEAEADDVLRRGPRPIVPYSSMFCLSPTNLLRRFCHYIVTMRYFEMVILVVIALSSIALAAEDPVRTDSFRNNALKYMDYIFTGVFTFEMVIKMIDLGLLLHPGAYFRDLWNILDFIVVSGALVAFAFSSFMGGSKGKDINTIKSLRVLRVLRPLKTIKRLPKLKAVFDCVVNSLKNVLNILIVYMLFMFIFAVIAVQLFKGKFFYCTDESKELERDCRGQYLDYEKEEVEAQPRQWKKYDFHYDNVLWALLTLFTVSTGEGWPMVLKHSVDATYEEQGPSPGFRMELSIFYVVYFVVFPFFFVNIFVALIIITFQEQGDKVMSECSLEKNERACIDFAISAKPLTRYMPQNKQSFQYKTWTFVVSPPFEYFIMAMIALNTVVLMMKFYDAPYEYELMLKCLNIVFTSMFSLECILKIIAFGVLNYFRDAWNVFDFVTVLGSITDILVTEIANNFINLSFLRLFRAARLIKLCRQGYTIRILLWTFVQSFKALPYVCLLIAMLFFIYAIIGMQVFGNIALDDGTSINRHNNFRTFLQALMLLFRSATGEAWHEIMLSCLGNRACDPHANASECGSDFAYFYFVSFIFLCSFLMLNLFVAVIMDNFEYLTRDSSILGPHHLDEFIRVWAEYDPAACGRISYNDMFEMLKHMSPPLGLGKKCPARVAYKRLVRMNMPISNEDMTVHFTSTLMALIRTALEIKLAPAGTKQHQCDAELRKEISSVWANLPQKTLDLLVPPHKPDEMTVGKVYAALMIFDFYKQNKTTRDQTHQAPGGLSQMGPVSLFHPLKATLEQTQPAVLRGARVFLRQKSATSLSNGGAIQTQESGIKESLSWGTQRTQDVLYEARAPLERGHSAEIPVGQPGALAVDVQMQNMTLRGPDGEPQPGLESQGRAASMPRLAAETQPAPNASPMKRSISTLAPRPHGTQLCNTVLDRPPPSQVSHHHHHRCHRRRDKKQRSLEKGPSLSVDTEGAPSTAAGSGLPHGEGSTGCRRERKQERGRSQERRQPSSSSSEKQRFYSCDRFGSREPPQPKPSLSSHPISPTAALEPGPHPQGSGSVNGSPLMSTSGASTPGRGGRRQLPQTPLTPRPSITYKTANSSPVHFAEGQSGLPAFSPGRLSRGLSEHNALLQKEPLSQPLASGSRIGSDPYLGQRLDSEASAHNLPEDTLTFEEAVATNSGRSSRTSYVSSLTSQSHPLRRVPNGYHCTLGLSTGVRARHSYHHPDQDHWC
T1 sequence (P54290 25-944 partner limits assumed): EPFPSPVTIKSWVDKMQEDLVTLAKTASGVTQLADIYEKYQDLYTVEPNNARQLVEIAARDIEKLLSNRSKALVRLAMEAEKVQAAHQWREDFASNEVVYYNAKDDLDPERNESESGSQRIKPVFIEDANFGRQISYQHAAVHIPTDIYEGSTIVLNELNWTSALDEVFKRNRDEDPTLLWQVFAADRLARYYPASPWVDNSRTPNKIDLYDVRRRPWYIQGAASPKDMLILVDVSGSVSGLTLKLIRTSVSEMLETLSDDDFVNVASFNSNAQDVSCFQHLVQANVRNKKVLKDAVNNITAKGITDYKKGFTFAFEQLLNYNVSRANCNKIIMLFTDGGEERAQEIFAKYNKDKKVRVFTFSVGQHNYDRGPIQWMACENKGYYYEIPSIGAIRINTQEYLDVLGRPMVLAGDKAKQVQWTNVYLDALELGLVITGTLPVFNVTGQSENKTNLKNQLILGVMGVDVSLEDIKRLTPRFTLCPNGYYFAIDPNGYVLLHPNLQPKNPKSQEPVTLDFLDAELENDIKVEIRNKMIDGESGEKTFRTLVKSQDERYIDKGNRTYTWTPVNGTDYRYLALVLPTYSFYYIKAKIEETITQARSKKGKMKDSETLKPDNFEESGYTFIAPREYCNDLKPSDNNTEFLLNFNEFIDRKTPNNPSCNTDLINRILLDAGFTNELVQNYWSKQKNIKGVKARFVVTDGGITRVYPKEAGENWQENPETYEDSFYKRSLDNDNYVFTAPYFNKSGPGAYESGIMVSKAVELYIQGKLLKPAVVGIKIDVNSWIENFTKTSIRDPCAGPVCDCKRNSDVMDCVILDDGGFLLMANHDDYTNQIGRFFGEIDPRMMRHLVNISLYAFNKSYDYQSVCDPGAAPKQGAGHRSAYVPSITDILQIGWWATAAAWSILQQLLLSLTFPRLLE
T1 sequence (P54290 945-1091 partner limits assumed): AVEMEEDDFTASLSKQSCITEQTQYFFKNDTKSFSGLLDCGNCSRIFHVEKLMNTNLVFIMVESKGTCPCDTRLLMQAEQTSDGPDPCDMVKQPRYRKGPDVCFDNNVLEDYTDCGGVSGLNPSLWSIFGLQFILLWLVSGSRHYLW
T1 sequence (P54283 whole entry partner): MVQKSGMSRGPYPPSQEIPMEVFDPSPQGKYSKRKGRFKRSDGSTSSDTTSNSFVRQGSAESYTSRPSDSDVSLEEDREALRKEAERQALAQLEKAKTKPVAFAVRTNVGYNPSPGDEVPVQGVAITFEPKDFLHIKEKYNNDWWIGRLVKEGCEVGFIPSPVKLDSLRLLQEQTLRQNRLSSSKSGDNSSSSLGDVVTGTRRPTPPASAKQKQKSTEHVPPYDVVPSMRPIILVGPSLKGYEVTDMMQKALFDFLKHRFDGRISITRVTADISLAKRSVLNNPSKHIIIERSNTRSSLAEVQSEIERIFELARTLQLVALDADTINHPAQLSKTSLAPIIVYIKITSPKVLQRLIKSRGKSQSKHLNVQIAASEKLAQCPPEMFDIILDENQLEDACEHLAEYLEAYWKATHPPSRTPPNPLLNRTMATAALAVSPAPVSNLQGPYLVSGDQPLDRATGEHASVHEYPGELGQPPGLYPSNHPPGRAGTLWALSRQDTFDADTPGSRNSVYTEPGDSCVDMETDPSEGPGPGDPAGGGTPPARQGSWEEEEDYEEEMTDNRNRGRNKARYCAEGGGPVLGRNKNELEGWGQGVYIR
Put plainly: N-type calcium channel block, whole cell patch clamp in transfected HEK 293 cells. Format: cell-based. The settings on record: holding potential −80 mV to +10 mV. The method, then: N-type calcium channel blocking activity was assayed in human embryonic kidney cells, HEK 293, stably transfected with the rat brain N-type calcium channel subunits (α1B+α2δ+β1b cDNA subunits). Alternatively, N-type calcium channels (α1B+α2δ+β1b cDNA subunits), L-type channels (α1C+α2δ+β1b cDNA subunits) and P/Q-type channels (α1A+α2δ+β1b cDNA subunits) were transiently expressed in HEK 293 cells. Briefly, cells were cultured in Dulbecco's modified eagle medium (DMEM) supplemented with 10% fetal bovine serum, 200 U/ml penicillin and 0.2 mg/ml streptomycin at 37° C. with 5% CO2. At 85% confluency cells were split with 0.25% trypsin/1 mM EDTA and plated at 10% confluency on glass coverslips. At 12 hours the medium was replaced and the cells transiently transfected using a standard calcium phosphate protocol and the appropriate calcium channel cDNA's. Fresh DMEM was supplied and the cells transferred to 28° C./5% CO2. Cells were incubated for 1 to 2 days prior to whole cell recording.
Whole cell patch clamp experiments were performed using an Axopatch 200B amplifier (Axon Instruments, Burlingame, Calif.) linked to a personal computer equipped with pCLAMP software. The external and internal recording solutions contained, respectively, 5 mM BaCl2, 10 mM MgCl2, 10 mM HEPES, 40 mM TEACl, 10 mM glucose, 87.5 mM CsCl (pH 7.2) and 108 mM CsMS, 4 mM MgCl2, 9 mM EGTA, 9 mM HEPES (pH 7.2). Currents were typically elicited from a holding potential of −80 mV to +10 mV using Clampex software (Axon Instruments). Typically, currents were first elicited with low frequency stimulation (0.067 Hz) and allowed to stabilize prior to application of the compounds. The compounds were then applied during the low frequency pulse trains for two to three minutes to assess tonic block, and subsequently the pulse frequency was increased to 0.2 Hz to assess frequency dependent block. Data were analyzed using Clampfit (Axon Instruments) and SigmaPlot 4.0 (Jandel Scientific).
(In general: Patch clamp records ionic current or voltage across a cell membrane.)

Setting [1] is: low frequency stimulation 0.067 Hz (tonic block), 5 mM BaCl2, read-out: IC50 @ 0.067 Hz.
Setting [2] is: pulse frequency 0.2 Hz (frequency dependent block), 5 mM BaCl2, read-out: IC50 @ 0.2 Hz.

A word on the pIC50: it is −log10 of the IC50, conventionally taken in molar units. As for `Cc1ccccc1C(CC(=O)N1CCC(C(=O)N2CCNCC2)CC1)c1ccccc1C` [Compound 17, 1-(4-(piperazine-1-carbonyl)piperidin-1-yl)-3,3-di-o-tolylpropan-1-one], the negative-log IC50 (pIC50) under setting [1] is 5.45 and the pIC50 under setting [2] was 5.73.
On to `CC1CN(C(=O)C2CCN(C(=O)CC(c3ccccc3)c3ccccc3)CC2)CC(C)N1` (centres unmarked) [Compound 24, 1-(4-(3,5-dimethylpiperazine-1-carbonyl)piperidin-1-yl)-3,3-diphenylpropan-1-one], for which the pIC50 runs as follows: under setting [1], less than 5.26; under setting [2], less than 5.45.
For `Cc1ccccc1C(CC(=O)N1CCC(CN2CCN(C)CC2)CC1)c1ccccc1C` [Compound 14, 1-(4-((4-methylpiperazin-1-yl)methyl)piperidin-1-yl)-3,3-di-o-tolylpropan-1-one], in that order: 5.72 and 5.97.
`CN1CCN(CC2CCN(C(=O)CC(c3ccccc3)c3ccccc3)CC2)CC1` [Compound 10, 1-(4-((4-methylpiperazin-1-yl)methyl)piperidin-1-yl)-3,3-diphenylpropanon-1-one]: the pIC50 is, setting by setting: under setting [1], 5.60; under setting [2], 5.76.
